This note sets out measurements from patent US20060004028A1, “Novel PARP inhibitor” (MOCHIDA PHARMACEUTICAL CO., LTD., priority 2002, published 2006).

In one series the target is T1, PARP (Homo sapiens, UniProt P09874).
T1 construct: purchased Travigen (Trevigen) 4669-96-K
The series is described as follows: Measurement of PARP inhibitory activity (PARP Inhibition Assay kit, ADP-ribosylated histone). The settings on record: HSA PARP Enzyme, histone-coated plate, absorbance at 450 nm. In kind it is biochemical. Here is the method: PARP activity is determined by measuring the amount of ADP-ribosylated histone protein applied onto an assay plate according to the manual of a measurement kit “PARP Inhibition Assay” (produced by Travigen, catalog number: 4669-96-K). Specifically, 25 μL/well of “2×PARP cocktail” (containing 800 μM of NAD, 50 μM of biotinylated NAD, and denatured DNA) was added to each well of assay plates (96-well multiplate) previously coated with histone protein. Further added was 12.5 μL/well of test compound diluted with “PARP Buffer” (50 mM Tris-hydrochloric acid buffer (pH 8.0) containing 25 mM of MgCl2) and 12.5 μL/well (final concentration: 0.3 unit/50 μL/well) of “HSA PARP Enzyme” diluted with “PARP Buffer” in that order. The mixture was allowed to react at room temperature for 30 minutes. Enzyme reaction of PARP was suspended by discarding the reaction solution and rinsing with a phosphate buffer. Then, 50 μL/well of “Strep-HRP” (streptavidin-labeled horseradish peroxidase) was added and allowed to react at 37° C. for 20 to 30 minutes to bind to biotin-labeled ADP-ribosylated histone. After the reaction solution was discarded, resultings were rinsed with a phosphate buffer, and 50 μL/well of calorimetric substrate TACS-Sapphire was added to the mixture to react at room temperature for 5 to 10 minutes in the dark.
The reaction was terminated by adding 50 μL/well of 0.2 N hydrochloric acid solution, and the absorbance at 450 nm was measured with a microplate reader.

The next series deals with U937 cells. The series is described as follows: Inhibitory effect against active oxygen-induced cell injury with U937 cells. It is filed as cell-based. The settings on record: propidium iodide fluorescence. Here is the method: U937 cells were suspended in RPMI 1640 without serum, and were seeded at a concentration of 1×10^4 cells/50 μL/well in a solid assay plate (produced by Corning, black, tissue culture treated, Type: 3916). After adding 1 μL/well of test compound solution in DMSO, 50 μL/well of 20 mM hydrogen peroxide solution was added, followed by incubation at 37° C. for 3 hours in an atmosphere of 5% CO2. Then, 2 μL/well of 1.5 mM propidium iodide solution was added and incubation was further carried out at 37° C. for 1 hour. The fluorescence was measured with a fluorescence plate reader ARVO (excitation wavelength: 530 nm, fluorescence wavelength: 620 nm) to investigate hydrogen peroxide solution-induced necrosis inhibition.

[1] abbreviates: Homo sapiens, U-937, hydrogen peroxide-induced necrosis.

T1 sequence (P09874 whole entry): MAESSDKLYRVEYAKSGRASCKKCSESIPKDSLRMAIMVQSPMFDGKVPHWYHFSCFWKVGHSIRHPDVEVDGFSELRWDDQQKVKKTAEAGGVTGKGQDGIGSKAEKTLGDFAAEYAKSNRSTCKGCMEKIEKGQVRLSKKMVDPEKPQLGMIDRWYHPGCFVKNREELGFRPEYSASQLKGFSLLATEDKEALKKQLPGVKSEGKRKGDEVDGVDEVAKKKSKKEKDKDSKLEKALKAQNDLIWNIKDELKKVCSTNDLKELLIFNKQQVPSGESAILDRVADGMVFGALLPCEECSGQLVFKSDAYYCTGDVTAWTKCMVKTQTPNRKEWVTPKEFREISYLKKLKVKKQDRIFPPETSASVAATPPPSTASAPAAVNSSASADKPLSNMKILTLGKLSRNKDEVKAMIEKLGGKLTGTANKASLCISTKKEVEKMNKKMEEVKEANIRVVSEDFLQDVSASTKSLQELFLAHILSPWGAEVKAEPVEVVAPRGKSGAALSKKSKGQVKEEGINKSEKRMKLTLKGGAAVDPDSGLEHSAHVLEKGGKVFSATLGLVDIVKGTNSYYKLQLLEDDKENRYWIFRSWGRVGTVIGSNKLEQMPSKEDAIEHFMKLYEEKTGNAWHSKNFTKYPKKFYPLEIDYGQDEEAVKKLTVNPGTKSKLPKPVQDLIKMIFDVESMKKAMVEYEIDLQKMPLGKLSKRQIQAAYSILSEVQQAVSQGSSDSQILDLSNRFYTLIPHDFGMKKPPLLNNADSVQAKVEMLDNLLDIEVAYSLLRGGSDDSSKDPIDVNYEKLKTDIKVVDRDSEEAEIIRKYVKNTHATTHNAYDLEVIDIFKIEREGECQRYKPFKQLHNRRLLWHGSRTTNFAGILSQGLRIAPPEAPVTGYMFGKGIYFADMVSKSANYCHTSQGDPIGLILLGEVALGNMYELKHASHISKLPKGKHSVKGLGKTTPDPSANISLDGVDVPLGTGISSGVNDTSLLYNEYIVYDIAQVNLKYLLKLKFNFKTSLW

The compound `N[C@H]1CCN2c3c(cccc31)C(=O)N[C@@H]2c1ccc(OCCO)cc1` (racemic) [Example 93, Mixture of (3S,7S)-7-amino-3-(4-hydroxyethoxyphenyl)-6,7-dihydro-3H,5H-pyrido[3,2,1-ij]quinazoline-1(2H)-one and (3R,7R)-7-amino-3-(4-hydroxyethoxyphenyl)-6,7-dihydro-3H,5H-pyrido[3,2,1-ij]quinazoline-1(2H)-one] gave a melting point of 96.8 to 97.6 °C. In addition, the concentration for half-maximal inhibition (IC50) on PARP amounted to 0.006 µM.

Turning to `COc1ccc([C@H]2NC(=O)c3cccc4c3N2CC[C@@H]4N)cc1F` (racemic) [Example 99, Mixture of (3S,7S)-7-amino-3-(3-fluoro-4-methoxyphenyl)-6,7-dihydro-3H,5H-pyrido[3,2,1-ij]quinazoline-1(2H)-one and (3R,7R)-7-amino-3-(3-fluoro-4-methoxyphenyl)-6,7-dihydro-3H,5H-pyrido[3,2,1-ij]quinazoline-1(2H)-one], the melting point was in the range of 128.5 to 137.4 °C. Besides, the IC50 on PARP was 0.042 µM.

In turn, `O=C1CCN2c3c1cccc3C(=O)NC2c1ccc([N+](=O)[O-])cc1` (stereo not shown) [Example 17, 3-(4-nitrophenyl)-6,7-dihydro-3H,5H-pyrido[3,2,1-ij]quinazoline-1,7(2H)-dione] yielded a melting point of 198.8 to 209.3 °C. The same compound registered an IC50 in the series on U937 cells (setting [1]) of 1.2 µM. Besides, the IC50 against PARP turned out to be 0.24 µM.

For `COc1ccc(C2NC(=O)c3cccc4c3N2CCC4=NO)cc1F` (stereo not shown) [Example 66, 3-(3-fluoro-4-methoxyphenyl)-7-hydroxyimino-6,7-dihydro-3H,5H-pyrido[3,2,1-ij]quinazoline-1(2H)-one], the melting point lay in the range of 260.3 to 261.6 °C. In the series on U937 cells (setting [1]), this compound returned an IC50 of 1.7 µM.

Turning to “Mixture of (3S,7S)-7-amino-3-(4-bromophenyl)-6,7-dihydro-3H,5H-pyrido[3,2,1-ij]quinazoline-1(2H)-one and (3R,7R)-7-amino-3-(4-bromophenyl)-6,7-dihydro-3H,5H-pyrido[3,2,1-ij]quinazoline-1(2H)-one [Example 123]”, the IC50 was 0.3 µM with U937 cells (hydrogen peroxide-induced necrosis) and 0.11 µM against PARP.

The compound `N[C@H]1CCN2c3c(cccc31)C(=O)N[C@@H]2c1cccnc1` (racemic) [Example 100, Mixture of (3S,7S)-7-amino-3-(3-pyridyl)-6,7-dihydro-3H,5H-pyrido[3,2,1-ij]quinazoline-1(2H)-one and (3R,7R)-7-amino-3-(3-pyridyl)-6,7-dihydro-3H,5H-pyrido[3,2,1-ij]quinazoline-1(2H)-one] yielded a melting point of 127 to 131.2 °C. Also, inhibition against PARP was half-maximal at 0.17 µM (IC50).

As to `COc1ccc(C2NC(=O)c3cccc4c3N2CCC4N)cc1` (stereo not shown) [Example 4, 7-amino-3-(4-methoxyphenyl)-6,7-dihydro-3H,5H-pyrido[3,2,1-ij]quinazolinone-1(2H)-one], the melting point was in the range of 139.7 to 145.9 °C. The compound also had a half-inhibitory concentration (IC50) in the series on U937 cells (setting [1]) of 0.61 µM. The compound also displayed an IC50 on PARP of 0.058 µM.

The melting point is the temperature, or range, at which the solid turns liquid. Broadly, the IC50 is the concentration that gives 50% inhibition. High values mean weaker potency in that assay, low ones greater potency in that assay.
